Measurements published in patent US7598244B2, “[1,2,4]triazolo[1,5,a]pyrimidin-2-ylurea derivative and use thereof” (Nippon Kayaku Kabushiki Kaisha, priority 2003, dated 2009).
Where two headings read alike, the source gives them in different places. Values belong to the compound of their own block, whether it stands above or below them.

What was measured:
[1] = test system: MHC class I molecules of T1 cells (human lymphoma cell line 174×CEM.); test: Effect on expression of MHC class I from T1 cells (flow cytometry, MFI); format: cell-based; details: 3 days culture
Method in brief: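 EC20 is the compound level that lowers MHC class I MFI by 20% relative to compound-free cultures. Read-out was flow cytometry after FITC W6/32 staining.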

[2] = test system: (C57BL/6XB6. C—H2^bml) F1 mice; test: Life-lengthening effect on graft versus host disease (GVHD); format: in vivo, mouse; details: oral, once a day
Experimental: Life-Lengthening Effect on Graft Versus Host Disease (GVHD)
The present test was carried out by modification of the method of Jonathan et al. (Jonathan et al., Blood, p. 93 (1999)). First, 6.0 Gy X-ray was applied to (C57BL/6XB6. C—H2^bml) F1 mice (produced by mating 6XB6.C—H2^bml mice (Jackson Laboratory) with C57BL/6 mice (Charles River Japan); female; 8 to 12-week-old). Thereafter, CD8 positive T cells (1.25×10^6 cells) prepared from the splenic cells of C57BL/6 mice (Charles River Japan; female; 8-week-old) were intravenously injected into the above (C57BL/6XB6. C—H2^bml) F1 mice. From the day before the injection, the test compound having each diluted concentration or 0.5% carboxymethyl cellulose used as a solvent was orally administered to the mice once a day for 7 to 30 consecutive days. The day on which the transplantation was conducted was defined as day 0. Based on the median of the survival days of each group, the prolongation rate of such survival dates was calculated using the following formula (7). Thus, the effect of the test compound on GVHD was analyzed.
[formula] • Eexp: Median of survival days of test compound administration group • Cexp: Median of survival days of solvent administration group

[3] = test system: MHC class I molecules of human peripheral blood-derived dendritic cells; test: Effect on expression of MHC class I molecules from human peripheral blood-derived dendritic cells; format: cell-based; details: dendritic cells matured with TNF-α, 3 days; read-out: EC50 (reduction of 50% of the number of cells wherein MHC class I molecules were highly expressed)
Source text: Effect on Expression of MHC Class I Molecules from Human Peripheral Blood-Derived Dendritic Cells
Monocytes were isolated from human peripheral blood by the specific gravity centrifugation method. Thereafter, using mouse anti-human CD14 antibody-binding microbeads and a magnetic cell separation system (Miltenyi Biotec), CD14 positive cells were separated from the peripheral blood monocytes. The separated CD14 positive cells were suspended in an RPMI 1640 medium containing 10% FBS, and the suspension was then inoculated in a 6-well plate, resulting in a concentration of 1.0×10^6 cells/well. It was cultured at 37° C. for 20 minutes in an incubator containing 5% carbon dioxide. […] Thereafter, RPMI 1640 containing a 500 U/ml human recombinant […] (hereinafter referred to as GM-CSF; Anapure Bioscientific), 50 ng/ml human recombinant interleukin 4 (hereinafter referred to as IL-4; Pepro Tech), and 10% FBS, was added to the remaining suspension at a concentration of 2 ml/well. The obtained mixture was then cultured at 37° C. in an incubator containing 5% carbon dioxide. When adhesive CD14 positive cells are cultured in the presence of GM-CSF and IL-4, the CD14 positive cells were differentiated into non-adhesive immature dendritic cells. After the cells had been cultured for 7 days, non-adhesive cells were recovered to obtain immature dendritic cells. Using a 6-well plate, the immature dendritic cells (2.5×10^5 cells/well) were cultured in RPMI 1640 containing a 100 U/ml human recombinant tumor necrosis factor-α (hereinafter referred to as TNF-a; Pepro Tech), a test compound, and 10% FBS, at 37° C. for 3 days in an incubator containing 5% carbon dioxide. The dendritic cells became mature as a result of the presence of TNF-α, but in the present test, a test compound was allowed to simultaneously act on the cells. The mature dendritic cells were then stained with fluoroisothiocyanate-labeled mouse anti-human MHC class I monoclonal antibody (an antibody generated from the cell line W6/32 (ATCC No. CRL 1991)). The rate of the number of cells wherein MHC class I molecules were highly expressed to the total number of cells was measured by flow cytometry. The reduction rate of the number of cells wherein MHC class I molecules were highly expressed was calculated using the following formula (2), and the concentrations of test compounds necessary for reduction of 50% (EC50 values) were obtained.
[formula] • Eexp: (The number of cells, wherein MHC class I molecules are highly expressed, in cultured cells containing test compound)/(the total number of cells) • Cexp: (The number of cells, wherein MHC class I molecules are highly expressed, in cultured cells containing no test compounds)/(the total number of cells)

[4] = test system: human dendritic cells cultured with human allogenic T cells; test: Effect on the ability of human dendritic cells to induce the growth of allogenic T cells ([3H]-thymidine incorporation); format: cell-based; details: dendritic cells treated 3 days with test compound and TNF-α, then 5 days with allogenic T cells, read-out: IC50 (inhibition of DNA synthesis of lymphocytes)
Experimental: Effect on the Ability of Human Dendritic Cells to Induce the Growth of Allogenic T Cells
Immature dendritic cells were cultured with a test compound and TNF-α for 3 days by the same method as that described in Test Example 2. The obtained dendritic cells (2.5×10^3 cells/50 μl/well) were cultured together with human allogenic T cells (2.0×10^5 cells/150 μl/well) in a 96-well flat bottom plate at 37° C. for 5 days in an incubator containing 5% carbon dioxide. Thereafter, [^3H]-thymidine (Amersham Pharmacia Biotech) was added thereto at an amount of 1 μCi/10 μl/well, 16 hours before completion of the culture. After completion of the culture, cells were captured on a glass filter using a cell harvester (Skatron Instrument) and then dried. Thereafter, Scintillator ACS-II (Amersham Pharmacia Biotech) was added thereto, and the radioactivity of [^3H]-thymidine incorporated into the cells were then measured using a liquid scintillation counter. The inhibition rate of the DNA synthesis of lymphocytes was calculated using the following formula (3). Thereafter, the concentration of a test compound necessary for inhibition of 50% (IC50 value) was obtained.
[formula] • Eexp: The amount of [^3H]-thymidine incorporated into cultured cells containing test compound • Cexp: The amount of [^3H]-thymidine incorporated into cultured cells containing no test compounds

mouse splenic cells = test: Inhibitory action on blastogenesis of mouse splenic cells ([3H]-thymidine incorporation); format: cell-based; details: 72 hours
Experimental: Inhibitory Action on Blastogenesis of Mouse Splenic Cells
The spleen was excised from each of BALB/c mice (Charles River Japan; female; 10-week-old), and it was allowed to pass through a mesh to obtain a single cell suspension. This single cell suspension was prepared to be 1.0×10^6 cells/ml. Thereafter, 200 μl of the suspension was fractionated into each well of a 96-well plate. Thereafter, as blastogenic stimulation, 5 μg/ml concanavalin A (Pharmacia) or 25 μg/ml Escherichia coli-derived lipopolysaccharide (DIFCO) was added to the well, and then, a solution containing a test compound with each different concentration was further added thereto at an amount of 20 μl/well. The obtained mixture was cultured at 37° C. for 72 hours in an incubator containing 5% carbon dioxide. Thereafter, a 1 μCi/10 μl/well [^3H]-thymidine solution was added thereto 64 hours after initiation of the culture. After completion of the culture (72 hours later), the cells were captured on a filter using a cell harvester, and they were then dried. Thereafter, scintillator was added thereto, and the radioactivity of [^3H]-thymidine incorporated into the cells was then measured using a liquid scintillation counter. The inhibition rate of the DNA synthesis was calculated using the aforementioned formula (3). Thereafter, the concentration of a test compound necessary for inhibition of 50% (IC50 value) was obtained.

BALB/c mice = test: Effect on mouse delayed-type hypersensitivity reaction (DTH reaction), swelling of the sole; format: in vivo; details: Intraperitoneal, administration period 7 days, 100 mg/kg/single administration
Experimental: Effect on Mouse Delayed-Type Hypersensitivity Reaction (DTH Reaction)
1.0×10^5 sheep erythrocytes (Nippon Seibutsu Zairyo Center, Co., Ltd.) were administered to each of BALB/c mice (Charles River Japan, Inc.; female; 8-week-old) by intravenous injection for sensitization. From the day of administration of the sheep erythrocytes, a test compound was administered to the mouse. As a control, a 0.5% carboxymethyl cellulose (CMC)-Na solution and a normal saline solution used as solvents were administered to the same type of mouse via oral administration or intraperitoneal administration. Five days after the antigen sensitization, 1.0×10^8 sheep erythrocytes were subcutaneously injected into the sole of the mouse. 24 hours later, the thickness of the sole was measured. The value obtained by subtracting the mean value of the thicknesses of the soles of mice, to which a normal saline solution had been administered instead of the sheep erythrocytes, from the above measurement value, was defined as swelling of the sole generated as a result of the DTH reaction. The inhibition rate of the swelling of the sole caused by the DTH reaction was calculated using the following formula (5). The amount of the test compound necessary for inhibition of 50% (ED50 value) was obtained as the activity of the test compound to inhibit the DTH reaction. It is to be noted that cyclosporin A was used as a positive control.
[formula] • Eexp: Swelling of sole of mouse to which test compound was administered • Cexp: Swelling of sole of mouse to which solvent was administered

[5] = Mus musculus, Lymphocyte, 5 μg/ml concanavalin A, read-out: Lymphocyte blastogenesis IC50 (μM), ConA stimulation
[6] = Mus musculus, Lymphocyte, 25 μg/ml Escherichia coli-derived lipopolysaccharide, read-out: Lymphocyte blastogenesis IC50 (μM), LPS stimulation
[7] = 100 mg/kg/single administration

Structure (SMILES): COc1ccc(-c2ccnc3nc(NC(=O)NC(C)CCCC(C)(C)O)nn23)cc1 (racemic) [Example 219]
EC20 (concentration necessary for suppressing 20% of the expression level of MHC class I molecules) [1]: 50 nM
Lengthening rate of survival days (%) ([2]; 25 mg/kg/single administration): 200%

Structure (SMILES): COc1ccc(-c2ccnc3nc(NC(=O)NC(C)CCC(C)(C)O)nn23)cc1 (racemic) [Example 317, (±)-1-(4-hydroxy-1,4-dimethylpentyl)-3-[7-(4-methoxyphenyl)-[1,2,4]triazolo[1,5-a]pyrimidin-2-yl]urea]
EC20 (concentration necessary for suppressing 20% of the expression level of MHC class I molecules) [1]: 60 nM
Lengthening rate of survival days (%) ([2]; 30 mg/kg/single administration): 24%

EC50 [3]: 120 nM
IC50 (mouse splenic cells; [5]): 0.41 µM
IC50 (mouse splenic cells; [6]): 0.09 µM
Structure (SMILES): COc1ccc(-c2ccnc3nc(NC(=O)NC(C(=O)OC(C)(C)C)C(C)C)nn23)cc1 (stereo not shown) [Example 045]
EC20 (concentration necessary for suppressing 20% of the expression level of MHC class I molecules) [1]: 30 nM
IC50 ([4]; Homo sapiens): 280 nM

EC50 [3]: 220 nM
IC50 (mouse splenic cells; [5]): 0.58 µM
IC50 (mouse splenic cells; [6]): 0.18 µM
Structure (SMILES): COc1ccc(-c2ccnc3nc(NC(=O)N[C@@H](C)c4ccccc4)nn23)cc1 [Example 101]
EC20 (concentration necessary for suppressing 20% of the expression level of MHC class I molecules) [1]: 210 nM
IC50 ([4]; Homo sapiens): 625 nM

Structure (SMILES): COc1ccc(-c2ccnc3nc(NC(=O)N[C@@H](C)c4cccc(OC)c4)nn23)cc1 [Example 132]
EC20 (concentration necessary for suppressing 20% of the expression level of MHC class I molecules) [1]: 39 nM
IC50 [4]: 625 nM
Lengthening rate of survival days (%) [2, 7]: 200%
IC50 (mouse splenic cells; 5 μg/ml concanavalin A, read-out: Lymphocyte blastogenesis IC50 (μM), ConA stimulation): 0.08 µM
IC50 (mouse splenic cells; 25 μg/ml Escherichia coli-derived lipopolysaccharide, read-out: Lymphocyte blastogenesis IC50 (μM), LPS stimulation): 0.06 µM

Structure (SMILES): COc1ccc(-c2ccnc3nc(NC(=O)N[C@H](C(=O)NCCN4CCCCC4)C(C)C)nn23)cc1.Cl [Example 135]
EC20 (concentration necessary for suppressing 20% of the expression level of MHC class I molecules) [1]: 810 nM
Inhibition rate (%) of swelling of the sole (BALB/c mice): 40.2%

Structure (SMILES): CCOCCC(C)NC(=O)Nc1nc2nccc(-c3ccc(OC)cc3)n2n1 (stereo not shown) [Example 274]
EC20 (concentration necessary for suppressing 20% of the expression level of MHC class I molecules) [1]: 110 nM
Lengthening rate of survival days (%) [2, 7]: 55%

Structure (SMILES): COc1cccc([C@H](C)NC(=O)Nc2nc3nccc(-c4ccc5c(c4)OCO5)n3n2)c1 [Example 300, (S)-1-[1-(3-methoxyphenyl)ethyl]-3-[7-(3,4-methylenedioxyphenyl)-[1,2,4]triazolo[1,5-a]pyrimidin-2-yl]urea]
EC20 (concentration necessary for suppressing 20% of the expression level of MHC class I molecules) [1]: 19 nM
Lengthening rate of survival days (%) ([2]; 10 mg/kg/single administration): 100%

Structure (SMILES): COc1ccc(-c2ccnc3nc(NC(=O)N[C@@H](C)CCCC(C)(C)O)nn23)cc1 [Example 319, (S)-1-(5-hydroxy-1,5-dimethylhexyl)-3-[7-(4-methoxyphenyl)-[1,2,4]triazolo[1,5-a]pyrimidin-2-yl]urea]
EC20 (concentration necessary for suppressing 20% of the expression level of MHC class I molecules) [1]: 20 nM
Lengthening rate of survival days (%) ([2]; 10 mg/kg/single administration): 200%
Lengthening rate of survival days (%) ([2]; 50 mg/kg/single administration): 200%
